# In patent US8709506B2, “Synergistic compositions for the treatment of topical viral infections” (Vitro Bio Sarl, priority 2010, dated 2014):
# Assays:
# [1] = test system: herpes virus; type: cell-based; details: for % cell death after 72 h TCID50 herpes virus infection: protease 0.5 μg/ml, Vero cells, serum free medium, virus control 56.0 ± 2.3
# [2] = test system: influenza virus; type: cell-based; details: for % cell death after 72 h TCID50 influenza virus infection: protease 0.5 μg/ml, MDCK cells, serum free medium, virus control 48.21 ± 6.77
substance,measurement,setting,value
"MMP-10: purified human MMP-10 (stromelysin 2), AnaSpec",% increase in herpes virus growth compared to controls,[1],+25.82%
same,% cell death after 72 h TCID50 herpes virus infection,[1],70.46 ± 5.41%
same,% increase in influenza viral growth compared to virus control,[2],+8.26%
same,% cell death after 72 h TCID50 influenza virus infection,[2],52.19 ± 7.56%
"MMP-7: purified human MMP7 (proenzyme), AnaSpec",% increase in herpes virus growth compared to controls,[1],+1.96%
same,% cell death after 72 h TCID50 herpes virus infection,[1],57.10 ± 6.68%
same,% increase in influenza viral growth compared to virus control,[2],+50.92%
same,% cell death after 72 h TCID50 influenza virus infection,[2],72.76 ± 5.96%
"MMP-3: purified human MMP 3 (stromelysin-1), AnaSpec",% increase in herpes virus growth compared to controls,[1],+7.57%
same,% cell death after 72 h TCID50 herpes virus infection,[1],64.16 ± 4.29%
same,% increase in influenza viral growth compared to virus control,[2],−8.49%
"MMP-1: purified human MMP 1 (interstitial and fibroblast collagenase), AnaSpec",% increase in herpes virus growth compared to controls,[1],+8.43%
same,% cell death after 72 h TCID50 herpes virus infection,[1],66.32 ± 7.11%
same,% increase in influenza viral growth compared to virus control,[2],+63.87%
same,% cell death after 72 h TCID50 influenza virus infection,[2],47.76 ± 7.26%
